For this experiment, the system named is T1, VtlG (P450).
T1 construct: recombinant from E. coli, purified; haem P450 monooxygenase
Nature of the experiment: UPLC product quantification at […] nm, Michaelis-Menten fit. To be noted: mono-hydroxylation of 4 to 6; 5 nM VtlG, commercial spinach Fd 0.1 mg/mL, spinach FNR 1 unit/mL, 1 mM NADPH; 50 mM Tris-HCl pH 7.5, 30 °C. It counts as biochemical, Streptomyces spiroverticillatus.

By Km is commonly meant the concentration of substrate that gives half-maximal velocity.

In the case of `CC1=CC=CC=CC(C)CNC(=O)CC(=O)C=CC=CCC(O)CC(O)C=CC=C1` (stereo not shown) [compound 4], the Km amounted to 840 ± 260 nM.

These data come from publication PMC11236979, “Iron-sulphur protein catalysed [4+2] cycloadditions in natural product biosynthesis” (Nature Communications, 2024).
